These results are taken from patent US9527834B2, “Substituted 1-benzylquinoxalin-2(1H)-one analogs as positive allosteric modulators of muscarinic acetylcholine receptor M1” (Vanderbilt University, priority 2013, dated 2016).

What is called EC50 is the midpoint of the concentration-response curve.

The target of this test is T1, mAChR M1 (Homo sapiens, UniProt P11229).
T1 construct: expressed in transfected cells; host or cells: CHO-K1
T1 sequence (P11229 1-460): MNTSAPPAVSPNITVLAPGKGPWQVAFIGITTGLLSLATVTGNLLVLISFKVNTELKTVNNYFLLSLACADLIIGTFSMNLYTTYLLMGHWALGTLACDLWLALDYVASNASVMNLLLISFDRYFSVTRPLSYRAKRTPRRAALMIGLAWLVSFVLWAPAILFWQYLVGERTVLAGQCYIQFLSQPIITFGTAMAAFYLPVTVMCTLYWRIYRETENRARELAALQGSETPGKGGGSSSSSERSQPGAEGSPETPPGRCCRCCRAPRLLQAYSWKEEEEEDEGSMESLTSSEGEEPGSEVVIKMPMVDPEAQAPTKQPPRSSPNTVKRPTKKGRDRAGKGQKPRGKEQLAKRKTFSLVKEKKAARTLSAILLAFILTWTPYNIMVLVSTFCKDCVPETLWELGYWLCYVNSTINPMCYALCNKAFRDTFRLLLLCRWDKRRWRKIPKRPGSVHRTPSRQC
Nature of the test: mAChR M1 cell-based functional assay (calcium mobilization, potentiation of EC20 acetylcholine response). Particulars: mAChR M1-expressing CHO-K1 cells; calcium flux; >10 μM estimated for low potency (no plateau) with >20% increase in ACh response. The text has this: Chinese hamster ovary (CHO-K1) cells stably expressing rat (r)M1 were purchased from the American Type Culture Collection and cultured according to their indicated protocol. CHO cells stably expressing human (h)M2, hM3, and hM5 were described previously (Levey, A. I., et al., J Neurosci. 1991, 11, 3218-3226.); hM1 and hM4 cDNAs were purchased from Missouri S&T cDNA Resource; rM4 cDNA was provided by T. I. Bonner (National Institutes of Health, Bethesda, Md.). rM2 and rM3 were cloned from a rat brain cDNA library and sequence verified. hM1, rM2, rM3, hM4, and rM4 cDNAs were used to stably transfect CHO-K1 cells purchased from the American Type Culture Collection using Lipofectamine2000. […]
Calcium flux was measured using the Functional Drug Screening System (FDSS) 6000 (Hamamatsu Corporation, Tokyo, Japan) as an increase in the fluorescent static ratio. […] Agonist activity was analyzed as a concentration-dependent increase in calcium mobilization upon compound addition. Positive allosteric modulator activity was analyzed as a concentration-dependent increase in the EC20 acetylcholine response. Antagonist activity was analyzed as a concentration-dependent decrease in the EC80 acetylcholine response. […]

On to `Cn1cc2c(-c3cc(F)c(Cn4c(=O)cnc5ccccc54)c(F)c3)cccc2n1` [Compound B1, 1-(2,6-difluoro-4-(2-methyl-2H-indazol-4-yl)benzyl)quinoxalin-2(1H)-one], for which the EC50 was 3.45 µM.
For `Cn1cc(-c2ccc(Cn3c(=O)cnc4ccccc43)cc2)cn1` [Compound B2], the EC50 is above 10 µM.
